Reference: US12065654B2, “Plants having increased tolerance to herbicides” (BASF SE, priority 2014, dated 2024)
pKi: −log10 of the molar value.

Experiments:
Chlamydomonas HPPD1 = experiment: HPPD activity assay; type: biochemical, Chlamydomonas reinhardtii; conditions: HPPD enzyme Chlamydomonas HPPD1;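 further: reaction started with 4-HPP at 0.05 mM after 30 min preincubation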
Procedure: (§1) The activity assay for HPPD is based on the analysis of homogentisic acid by reversed phase HPLC.
(§2) The assay mixture can contain 150 mM potassium phosphate buffer pH 7.0, 50 mM L-ascorbic acid, 100 μM Catalase (Sigma-Aldrich), 1 μM FeSO4 and 0.2 units of purified HPPD enzyme in a total volume of 505 μl. 1 unit is defined as the amount of enzyme that is required to produce 1 nmol of HGA per minute at 20° C.
(§3) The reaction is allowed to proceed for 45 min at room temperature. The reaction is stopped by the addition of 50 μl of 4.5 M phosphoric acid. The sample is filtered using a […] pore size PVDF filtration device. 5 μl of the cleared sample is analyzed on an UPLC HSS T3 column (particle size 1.8 μm, dimensions 2, 1×50 mm; Waters) by isocratic elution using 90% 20 mM NaH2PO4 pH 2.2, 10% methanol (v/v).
(§4) HGA is detected electrochemically at 750 mV (mode: DC; polarity: positive) and quantified by integrating peak areas (Empower software; Waters).
(§5) Inhibitors are dissolved in DMSO (dimethylsulfoxide) to a concentration of 0.5 mM. From this stock solution serial five-fold dilutions are prepared in DMSO, which are used in the assay. The respective inhibitor solution accounts for 1% of the assay volume. Thus, final inhibitor concentrations range from 5 μM to 320 pM, respectively. Activities are normalized by setting the uninhibited enzyme activity to 100%. IC50 values are calculated using non-linear regression.
(§6) Using methods which are described in the above examples or well known in the art, purified recombinant wild-type HPPD enzymes are characterized with respect to their kinetic properties and sensitivity towards HPPD inhibiting herbicides. Apparent michaelis constants (Km) and maximal reaction velocities (Vmax) are calculated by non-linear regression with the software GraphPad Prism 5 (GraphPad Software, La Jolla, USA) using a substrate inhibition model. […] Weighted means (by standard error) of Km and IC50 values are calculated from at least three independent experiments. The Cheng-Prusoff equation for competitive inhibition (Cheng, Y. C.; Prusoff, W. H. Biochem Pharmacol 1973, 22, 3099-3108) is used to calculate dissociation constants (Ki).
(§7) Field performance of the HPPD enzyme, which is used as a herbicide tolerance trait may depend not only on its lack of sensitivity towards HPPD inhibiting herbicides but also on its activity. To assess the potential performance of a herbicide tolerance trait a tolerance index (TI) is calculated using the following formula: […]
(§8) Easy comparison and ranking of each trait is enabled by normalizing tolerance indexes on Arabidopsis wild-type HPPD.

Hordeum HPPD L334E = biological target: T1, Hordeum HPPD L334E (Hordeum vulgare, UniProt O48604, A164G/L334E/R146V/R147D/R148G); experiment: HPPD activity assay, mutant; type: biochemical; conditions: Hordeum HPPD variant L334E; normalized on wild-type;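 further: reaction started with 4-HPP at 0.05 mM after 30 min preincubation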
T1 construct: His-tag (N); made in house; host or cells: E. coli BL21 (DE3)
T1 sequence (O48604 whole entry R146V/R147D/R148G/A164G/L334E): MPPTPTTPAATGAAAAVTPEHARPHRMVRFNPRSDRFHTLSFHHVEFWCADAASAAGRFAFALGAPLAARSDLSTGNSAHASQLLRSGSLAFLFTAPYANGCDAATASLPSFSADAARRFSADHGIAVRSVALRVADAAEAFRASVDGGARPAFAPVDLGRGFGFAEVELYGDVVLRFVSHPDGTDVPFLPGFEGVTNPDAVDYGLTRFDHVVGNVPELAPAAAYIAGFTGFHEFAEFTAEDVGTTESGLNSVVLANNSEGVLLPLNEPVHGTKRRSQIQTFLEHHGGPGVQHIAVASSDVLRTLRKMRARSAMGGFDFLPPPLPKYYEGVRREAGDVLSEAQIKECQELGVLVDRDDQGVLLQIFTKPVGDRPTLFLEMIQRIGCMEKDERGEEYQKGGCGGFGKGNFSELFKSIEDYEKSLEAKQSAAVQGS
Procedure: as §1, §2, §3, §4, §5
(§9) Purified, mutant HPPD enzymes are obtained by the methods described above. Dose response and kinetic measurements are carried out using the described HPPD activity assay. Apparent michaelis constants (Km) and maximal reaction velocities (Vmax) are calculated by non-linear regression with the software GraphPad Prism 5 (GraphPad Software, La Jolla, USA) using a substrate inhibition model. […] Weighted means (by standard error) of K. and IC50 values are calculated from at least three independent experiments. The Cheng-Prusoff equation for competitive inhibition (Cheng, Y. C.; Prusoff, W. H. Biochem Pharmacol 1973, 22, 3099-3108) is used to calculate dissociation constants (Ki).
(§10) Field performance of the optimized HPPD enzyme, which is used as a herbicide tolerance trait may depend not only on its lack of sensitivity towards HPPD inhibiting herbicides but also on its activity. To assess the potential performance of a herbicide tolerance trait a tolerance index (TI) is calculated using the following formula: […]
(§11) Easy comparison and ranking of each trait is enabled by normalizing tolerance indexes on the respective wild-type HPPD.

[1] = biological target: T2, Hordeum HPPD L353M, P321R, L320N (Hordeum vulgare, UniProt O48604, L320N/L353M/P321R); experiment: HPPD activity assay, mutant; type: biochemical; conditions: Hordeum HPPD variant L353M, normalized on wild-type
T2 construct: His-tag (N); made in house; host or cells: E. coli BL21 (DE3)
T2 sequence (O48604 whole entry R146V/R147D/R148G/A164G/L320N/P321R/L353M): as the sequence (O48604 whole entry R146V/R147D/R148G/A164G/L334E) above, with L320N, P321R, E334L, L353M counted along it
Procedure: as §1, §2, §3, §4, §5, §9, §10, §11

[2] = biological target: T3, Arabidopsis HPPD M335H, P336A (Arabidopsis thaliana, UniProt P93836, M335H/P336A); type: biochemical; conditions: Arabidopsis HPPD variant M335H, normalized on wild-type;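 further: reaction started with 4-HPP at 0.05 mM after 30 min preincubation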
T3 construct: His6 (N); made in house; host or cells: E. coli BL21 (DE3)
T3 sequence (P93836 whole entry M335H/P336A): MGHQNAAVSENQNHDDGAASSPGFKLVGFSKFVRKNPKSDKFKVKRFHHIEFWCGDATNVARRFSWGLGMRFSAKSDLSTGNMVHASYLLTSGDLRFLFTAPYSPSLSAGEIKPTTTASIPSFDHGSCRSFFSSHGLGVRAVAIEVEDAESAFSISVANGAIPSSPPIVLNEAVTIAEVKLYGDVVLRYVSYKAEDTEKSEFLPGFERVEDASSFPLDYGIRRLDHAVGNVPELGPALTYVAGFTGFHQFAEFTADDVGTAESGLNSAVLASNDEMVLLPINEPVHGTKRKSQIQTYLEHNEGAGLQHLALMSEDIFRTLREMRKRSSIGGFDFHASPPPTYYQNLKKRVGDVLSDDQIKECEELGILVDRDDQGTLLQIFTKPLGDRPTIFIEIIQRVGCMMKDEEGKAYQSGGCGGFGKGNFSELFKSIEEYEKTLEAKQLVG
Procedure: as §1, §2, §3, §4, §5, §9, §10, §11

Arabidopsis HPPD F381L = biological target: T4, Arabidopsis HPPD F381L (Arabidopsis thaliana, UniProt P93836, F381L); type: biochemical; conditions: Arabidopsis HPPD variant F381L; normalized on wild-type
T4 construct: His6 (N); made in house; host or cells: E. coli BL21 (DE3)
T4 sequence (P93836 whole entry F381L): as the sequence (P93836 whole entry M335H/P336A) above, with H335M, A336P, F381L counted along it
Procedure: as §1, §2, §3, §4, §5, §9, §10, §11

[3] = biological target: T5, Arabidopsis HPPD M335H, P336A, E363Q (Arabidopsis thaliana, UniProt P93836, E363Q/M335H/P336A); type: biochemical; conditions: Arabidopsis HPPD variant M335H, normalized on wild-type;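 further: reaction started with 4-HPP at 0.05 mM after 30 min preincubation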
T5 construct: His6 (N); made in house; host or cells: E. coli BL21 (DE3)
T5 sequence (P93836 whole entry M335H/P336A/E363Q): as the sequence (P93836 whole entry M335H/P336A) above, with E363Q counted along it
Procedure: as §1, §2, §3, §4, §5, §9, §10, §11

[4] = biological target: T6, Arabidopsis HPPD M335H, P336G (Arabidopsis thaliana, UniProt P93836, M335H/P336G); type: biochemical; conditions: Arabidopsis HPPD variant M335H, normalized on wild-type
T6 construct: His6 (N); made in house; host or cells: E. coli BL21 (DE3)
T6 sequence (P93836 whole entry M335H/P336G): as the sequence (P93836 whole entry M335H/P336A) above, with A336G counted along it
Procedure: as §1, §2, §3, §4, §5, §9, §10, §11

[5] = biological target: T7, Arabidopsis HPPD M335H, P336G, E363Q (Arabidopsis thaliana, UniProt P93836, E363Q/M335H/P336G); type: biochemical; conditions: Arabidopsis HPPD variant M335H, normalized on wild-type
T7 construct: His6 (N); made in house; host or cells: E. coli BL21 (DE3)
T7 sequence (P93836 whole entry M335H/P336G/E363Q): as the sequence (P93836 whole entry M335H/P336A) above, with A336G, E363Q counted along it
Procedure: as §1, §2, §3, §4, §5, §9, §10, §11

Arabidopsis HPPD F381I = biological target: T8, Arabidopsis HPPD F381I (Arabidopsis thaliana, UniProt P93836, F381I); type: biochemical; conditions: Arabidopsis HPPD variant F381I; normalized on wild-type;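 further: reaction started with 4-HPP at 0.05 mM after 30 min preincubation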
T8 construct: His6 (N); made in house; host or cells: E. coli BL21 (DE3)
T8 sequence (P93836 whole entry F381I): as the sequence (P93836 whole entry M335H/P336A) above, with H335M, A336P, F381I counted along it
Procedure: as §1, §2, §3, §4, §5, §9, §10, §11

[6] = biological target: T9, Arabidopsis HPPD (SEQ ID NO:53) (Arabidopsis thaliana, UniProt P93836); experiment: HPPD activity assay (HPLC of homogentisic acid); type: biochemical; conditions: for Normalized tolerance index (TI): Arabidopsis HPPD variant Wild-type (reference, SEQ ID: 53); for TI normalized to Arabidopsis HPPD: HPPD enzyme Arabidopsis (reference); for TI (tolerance index): Arabidopsis HPPD, not normalized
T9 construct: His6 (N); made in house; host or cells: E. coli BL21 (DE3)
T9 sequence (P93836 1-445): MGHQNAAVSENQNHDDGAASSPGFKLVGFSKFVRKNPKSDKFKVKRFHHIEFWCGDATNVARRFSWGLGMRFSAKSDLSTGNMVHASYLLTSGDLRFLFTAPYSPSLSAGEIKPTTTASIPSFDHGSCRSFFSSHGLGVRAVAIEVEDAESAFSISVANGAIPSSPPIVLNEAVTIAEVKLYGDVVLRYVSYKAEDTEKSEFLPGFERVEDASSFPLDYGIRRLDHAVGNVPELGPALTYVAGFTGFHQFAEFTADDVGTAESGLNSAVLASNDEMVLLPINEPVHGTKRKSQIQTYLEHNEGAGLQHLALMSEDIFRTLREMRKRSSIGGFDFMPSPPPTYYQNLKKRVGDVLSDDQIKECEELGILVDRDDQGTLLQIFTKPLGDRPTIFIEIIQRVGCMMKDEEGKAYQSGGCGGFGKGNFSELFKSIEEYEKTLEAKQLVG
Procedure: as §1, §2, §3, §4, §5, §6, §7, §8

## CS(=O)(=O)c1ccc(C(=O)C2C(=O)CCCC2=O)c(Cl)c1COCC(F)(F)F [Inhibitor 4, 2-[2-chloro-4-methylsulfonyl-3-(2,2,2-trifluoroethoxymethyl)benzoyl]cyclohexane-1,3-dione]
Chlamydomonas HPPD1
  TI normalized to Arabidopsis HPPD: 0.1
Hordeum HPPD L334E
  Normalized tolerance index (TI): 2.1
[1]
  Normalized tolerance index (TI): 2.2
[2]
  Normalized tolerance index (TI): 0.1
Arabidopsis HPPD F381L
  Normalized tolerance index (TI): 0.1
[3]
  Normalized tolerance index (TI): 0.3
[4]
  Normalized tolerance index (TI): 0.2
[5]
  Normalized tolerance index (TI): 0.1
Arabidopsis HPPD F381I
  Normalized tolerance index (TI): 0.1
[6]
  Normalized tolerance index (TI): 1
  TI normalized to Arabidopsis HPPD: 1

## COCCOCc1nc(C(F)(F)F)ccc1C(=O)C1=C(O)C2CCC(C2)C1=O (centres unmarked) [Inhibitor 3, 2-hydroxy-3-[2-(2-methoxyethoxymethyl)-6-(trifluoromethyl)pyridine-3-carbonyl]bicyclo[3.2.1]oct-2-en-4-one]
Chlamydomonas HPPD1
  TI normalized to Arabidopsis HPPD: 0.1
Hordeum HPPD L334E
  Normalized tolerance index (TI): 1.2
[1]
  Normalized tolerance index (TI): 0.6
[2]
  Normalized tolerance index (TI): 0.1
Arabidopsis HPPD F381L
  Normalized tolerance index (TI): 0.1
[3]
  Normalized tolerance index (TI): 0.5
[4]
  Normalized tolerance index (TI): 0.3
[5]
  Normalized tolerance index (TI): 0.1
Arabidopsis HPPD F381I
  Normalized tolerance index (TI): 0.1
[6]
  Normalized tolerance index (TI): 1
  TI normalized to Arabidopsis HPPD: 1

## Cc1c(C(=O)c2cnn(C)c2O)ccc(S(C)(=O)=O)c1C1=NOCC1 [Inhibitor 1, [3-(4,5-dihydroisoxazol-3-yl)-2-methyl-4-methylsulfonyl-phenyl]-(5-hydroxy-1-methyl-pyrazol-4-yl)methanone]
Chlamydomonas HPPD1
  TI normalized to Arabidopsis HPPD: 1.7
Hordeum HPPD L334E
  Normalized tolerance index (TI): 3.6
[1]
  Normalized tolerance index (TI): 2.6
[2]
  Normalized tolerance index (TI): 3.4
Arabidopsis HPPD F381L
  Normalized tolerance index (TI): 11
[3]
  Normalized tolerance index (TI): 6.4
[4]
  Normalized tolerance index (TI): 5
[5]
  Normalized tolerance index (TI): 3
Arabidopsis HPPD F381I
  Normalized tolerance index (TI): 10.8
[6]
  Normalized tolerance index (TI): 1
  TI (tolerance index): 9.5E−4
  TI normalized to Arabidopsis HPPD: 1

## CS(=O)(=O)c1ccc(C(=O)C2C(=O)CCCC2=O)c([N+](=O)[O-])c1 [Inhibitor 2, 2-(4-methylsulfonyl-2-nitro-benzoyl)cyclohexane-1,3-dione]
Chlamydomonas HPPD1
  TI normalized to Arabidopsis HPPD: 0.1
Hordeum HPPD L334E
  Normalized tolerance index (TI): 4
[1]
  Normalized tolerance index (TI): 0.4
[2]
  Normalized tolerance index (TI): 0.1
Arabidopsis HPPD F381L
  Normalized tolerance index (TI): 0.1
[3]
  Normalized tolerance index (TI): 0.3
[4]
  Normalized tolerance index (TI): 0.1
[5]
  Normalized tolerance index (TI): 0.1
Arabidopsis HPPD F381I
  Normalized tolerance index (TI): 0.1
[6]
  pKi: 7.44
  Normalized tolerance index (TI): 1
  TI (tolerance index): 3.6E−2
  TI normalized to Arabidopsis HPPD: 1
